Test results from the supplement of paper PMC8976852.
± gives the standard deviation of the averaged measurements.

Legend:
Assay in all cases: activity (1 - area under the dose-response curve within the screened range) (fraction); higher = more sensitive
Settings in all cases: treatment time: 72 h
HCM-SANG-0270-C20 = system: HCM-SANG-0270-C20 (colorectal cancer organoid)
Description: (§1)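 Patient-derived cancer organoids (colorectal and oesophageal, HCM-SANG models) were grown for up to 6 months in 5% or 80% ECM (BME-2), then seeded in 384-well plates on an ECM layer and treated with 72 compounds for 3 days. Each compound used a 7-point half-log dilution series spanning a 1000-fold range, in technical triplicate and biological duplicate. Dose-response curves were fitted with a non-linear mixed effects model; fits with RMSE > 0.3 were removed, and activity = 1 - AUC within the screened dose range (0 = no activity, 1 = maximum).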

HCM-SANG-0266-C20 = system: HCM-SANG-0266-C20 (colorectal cancer organoid)
Description: as §1

HCM-SANG-0532-C20 = system: HCM-SANG-0532-C20 (colorectal cancer organoid)
Description: as §1

HCM-SANG-0291-C15 = system: HCM-SANG-0291-C15 (oesophageal cancer organoid)
Description: as §1

[1] = ECM percentage in culture prior to screening 5 %
[2] = ECM percentage in culture prior to screening 80 %

SMILES | activity (HCM-SANG-0270-C20; [1]) | activity (HCM-SANG-0270-C20; [2]) | activity (HCM-SANG-0266-C20; [1]) | activity (HCM-SANG-0266-C20; [2]) | activity (HCM-SANG-0532-C20; [1]) | activity (HCM-SANG-0532-C20; [2]) | activity (HCM-SANG-0291-C15; [1]) | activity (HCM-SANG-0291-C15; [2])
COc1ccc(C2=N[C@@H](c3ccc(Cl)cc3)[C@@H](c3ccc(Cl)cc3)N2C(=O)N2CCNC(=O)C2)c(OC(C)C)c1 [Nutlin-3a (-)] | 0.161 ± 0.034 | 0.0722 ± 0.033 | 0.218 ± 0.046 | 0.193 ± 0.064 | 0.148 ± 0.039 | 0.203 ± 0.054 | 0.0424 ± 0.021 | 0.0359 ± 0.015
O=c1cc(-c2cccc3c2Sc2ccccc2S3)oc(N2CCOCC2)c1 | 0.0345 ± 0.015 | 0.0384 ± 0.0084 | 0.0362 ± 0.021 | 0.0433 ± 0.027 | 0.0709 ± 0.021 | 0.037 ± 0.01 | 0.068 ± 0.034 | 0.0493 ± 0.031
CC1(C)CCC(c2ccc(Cl)cc2)=C(CN2CCN(c3ccc(C(=O)NS(=O)(=O)c4ccc(N[C@H](CCN5CCOCC5)CSc5ccccc5)c(S(=O)(=O)C(F)(F)F)c4)cc3)CC2)C1 [Navitoclax] | 0.201 ± 0.033 | 0.188 ± 0.047 | 0.327 ± 0.03 | 0.358 ± 0.051 | 0.314 ± 0.045 | 0.288 ± 0.075 | 0.125 ± 0.032 | 0.121 ± 0.029
C[C@@]1(C(=O)Nc2ccc(F)nc2)CCCN1c1nc(Nc2cc(C3CC3)n[nH]2)c2cccn2n1 | 0.18 ± 0.086 | 0.22 ± 0.11 | 0.455 ± 0.056 | 0.41 ± 0.056 | 0.279 ± 0.091 | 0.302 ± 0.035 | 0.126 ± 0.039 | 0.172 ± 0.056
CN1CCN(CCOc2cc(OC3CCOCC3)c3c(Nc4c(Cl)ccc5c4OCO5)ncnc3c2)CC1 [Saracatinib] | 0.121 ± 0.071 | 0.0918 ± 0.067 | 0.156 ± 0.038 | 0.126 ± 0.041 | 0.155 ± 0.067 | 0.141 ± 0.028 | 0.159 ± 0.035 | 0.185 ± 0.024
CC1(C)CCC(CN2CCN(c3ccc(C(=O)NS(=O)(=O)c4ccc(NCC5CCOCC5)c([N+](=O)[O-])c4)c(Oc4cnc5[nH]ccc5c4)c3)CC2)=C(c2ccc(Cl)cc2)C1 [Venetoclax] | 0.0303 ± 0.0092 | 0.0357 ± 0.029 | 0.0407 ± 0.02 | 0.0384 ± 0.018 | 0.0233 ± 0.0047 | 0.0331 ± 0.0083 | 0.0236 ± 0.007 | 0.0311 ± 0.022
CCC1=C[C@@H]2CN(C1)Cc1c([nH]c3ccccc13)[C@@](C(=O)OC)(c1cc3c(cc1OC)N(C)[C@H]1[C@@](O)(C(=O)OC)[C@H](OC(C)=O)[C@]4(CC)C=CCN5CC[C@]31[C@@H]54)C2 [Vinorelbine] | 0.0834 ± 0.05 | 0.095 ± 0.046 | 0.153 ± 0.031 | 0.153 ± 0.039 | 0.0815 ± 0.04 | 0.107 ± 0.011 | 0.0831 ± 0.009 | 0.107 ± 0.024
Cn1c(=O)n(-c2ccc(C(C)(C)C#N)cc2)c2c3cc(-c4cnc5ccccc5c4)ccc3ncc21 [Dactolisib] | 0.123 ± 0.039 | 0.0768 ± 0.059 | 0.254 ± 0.077 | 0.239 ± 0.092 | 0.193 ± 0.058 | 0.257 ± 0.025 | 0.101 ± 0.035 | 0.0783 ± 0.027
COc1cc2nccc(Oc3ccc(NC(=O)Nc4cc(C)on4)c(Cl)c3)c2cc1OC [Tivozanib] | 0.0217 ± 0.0076 | 0.0262 ± 0.01 | 0.0203 ± 0.0013 | 0.0214 ± 0.0013 | 0.0321 ± 0.016 | 0.0237 ± 0.0055 | 0.0202 ± 0.0045 | 0.0228 ± 0.0062
O=C(O)C(=O)O.[NH-][C@@H]1CCCC[C@H]1[NH-].[Pt+2] [Oxaliplatin] | 0.0594 ± 0.018 | 0.0493 ± 0.038 | 0.0673 ± 0.036 | 0.0486 ± 0.022 | 0.0448 ± 0.016 | 0.0692 ± 0.031 | 0.0391 ± 0.022 | 0.0459 ± 0.025
CCN(CC)CCCCNc1ncc2cc(-c3cc(OC)cc(OC)c3)c(NC(=O)NC(C)(C)C)nc2n1 | 0.0417 ± 0.029 | 0.0362 ± 0.015 | 0.0628 ± 0.031 | 0.0486 ± 0.023 | 0.0936 ± 0.015 | 0.0708 ± 0.015 | 0.0598 ± 0.031 | 0.0496 ± 0.0089
